# Data published in patent publication US20190038597A1, “PREVENTION OF VASCULAR AND CARDIAC FIBROSIS VIA IRE1ALPHA INHIBITION” (McMaster University, priority 2017, published 2019).
# Assays:
# VSMCs = experiment: Picro-Sirius Red assay of collagen synthesis in VSMCs; assay type: cell-based, rat
# Description: VSMCs were cultured in DMEM/F12 containing 1% FBS. Confluent cells were treated with L-ascorbic acid-2-phosphate (100 μg/ml) and either TGF-β1 (5 ng/ml) or Ang II (1 μM). (A) Agarose gel for assessment of TGF-β1-induced XBP1 splicing in VSMCs after 24 h. (B) Picro-Sirius Red assay for measurement of collagen deposition induced by combined TGF-β1 and AA2P treatment after 72 h, and inhibition by 4μ8c and STF-083010. (C) Western blot for assessment of collagen chaperone expression after treatment of TGF-β1 and 4μ8c for 48 h. *, p<0.05. (D) Measurement of Ang II-induced collagen production and inhibition by 4μ8c and STF-083010 after 72 h.
# VSMCs were isolated from the aortas of 5-week old WKY rats using the explant method^29. The thoracic aorta was removed from the animal and placed in ice-cold 5× Antibiotics-Antimycotics solution (ThermoFisher). The adventitia was gently removed and the aorta was cut longitudinally. The endothelial layer was removed by gentle scraping with forceps. The aorta was cut into 3 mm^2 squares and placed on a 6 well plate in DMEM/F12 medium containing 10% fetal bovine serum (FBS). Explants were incubated undisturbed in a 5% CO2 incubator at 37° C. for 1 week and then passaged. Sprague-Dawley renal fibroblasts were purchased (Cell Biologics) and cultured in low glucose DMEM/F12 medium containing 10% FBS, streptomycin (100 μgimp, and penicillin (100 U/ml, Invitrogen, Burlington, ON). Cells between passages 5 and 10 were used for experiments. Cells were cultured in medium containing 1% FBS overnight before treatment.
# Collagen synthesis was measured using a Picro-Sirius Red-based assay as previously described^30. Briefly, cells cultured on a 96 well plate were fixed in methanol for 10 minutes at −20° C. Cells were washed once with PBS and incubated with Picrosirius Red stain (0.1% Direct Red 80 in saturated picric acid) for 1 h at room temperature. After the staining solution was removed, the cells were washed three times with 0.1% acetic acid and then imaged. The dye was then eluted with 0.1 N NaOH for 10 minutes on a rocking platform. Absorbance at 540 nm was measured using a Spectramax Plus Microplate Reader (Molecular Devices).
# Cells were co-treated with either 4μ8c or S′TF-083010 to inhibit IRE1α endonuclease activity. TGF-β1 induced XBP1 splicing after 24 h, which was blocked by co-treatment with 4μ8c (FIG. 2A). Collagen production was measured using a Picro-Sirius Red-based colorimetric assay. TGF-β1 combined with AA2P induced collagen synthesis in the VSMCs, which was inhibited by co-treatment with 4μ8c or STF-083010 (FIG. 2B).
# [1] = tested on: SHR/L-NAME model of hypertension; experiment: Collagen content / fibrosis of vessels in L-NAME-treated SHRs; assay type: in vivo, rat; conditions: 18 days
# Description: 12-14 week old male SHRs were randomized to receive vehicle, L-NAME (50 mg/L) or L-NAME and 4μ8c (2.5 mg/kg/day i.p.) for 18 days. Aortas and carotid arteries were removed at sacrifice for mechanical and structural analysis. (A) Picro-Sirius Red staining of aorta and carotid artery sections (B) Determination of soluble collagen content in aorta and carotid arteries by Picro-Sirius Red-based assay. Stress-strain curves (C,E), elastic modulus-stress lines (D,F) and the slope of the elastic modulus-stress lines (G,H) were calculated. Data is presented as mean±SEM. *, p<0.05 vs. NT; #, p<0.05 vs. L-NAME. N≥4 per group; 2-5 segments of the thoracic aorta were analyzed per animal. In C to F, lines of best fit are bound by 95% confidence intervals (dotted lines). *, p<0.05.
# 12-14 week old male SHRs were used to determine the effect of pharmacological IRE1α inhibition on L-NAME-induced vascular stiffening. They were maintained on a 12-hour light-dark cycle with rat chow and water ad libitium. Animals were implanted with radio-telemetry devices (Data Science International, St. Paul, Minn., USA) one week before the start of the study. […]
# The wet weight of aortic tissues was determined. […]
# Tissues were fixed in 4% paraformaldehyde and subsequently embedded in paraffin. […] Collagen area density was calculated by dividing the PSR-stained area by the total area of the vessel.
compound,measurement,setting,value
"Cc1cc(=O)oc2c(C=O)c(O)ccc12 [4μ8c, 7-Hydroxy-4-methyl-2-oxo-2H-chromene-8-carbaldehyde]",collagen synthesis induced by TGF-β1 combined with AA2P,"VSMCs; 72 h, co-treatment, FIG. 2B",inhibited
same,collagen synthesis induced by Ang II,"VSMCs; Ang II (1 μM) 72 h, FIG. 2D",blocked
same,Collagen content in homogenized aortic tissue,"[1]; L-NAME+4μ8c group, PSR-based colorimetric assay",47.10±2.88 μg/mg tissue
same,fibrosis and vascular stiffness in the hypertensive animals,"[1]; SHR/L-NAME, 4μ8c 2.5 mg/kg/day i.p.",reduced
